Laboratory results published in patent US20250228857A1, “BIOSENSOR AND USES THEREOF” (The Johns Hopkins University, priority 2022, published 2025).
Where two headings read alike, the source gives them in different places.

Columns and labels:
CaMKII [1] = settings: cited from earlier work
CaMKII [2] = target: T1, CaMKII (Rattus norvegicus, UniProt P15791); test: Pacing-induced CaMKII activity in CaMKAR-expressing neonatal rat ventricular myocytes (NRVMs); assay type: cell-based
T1 construct: endogenous in cells; host or cells: neonatal rat ventricular myocytes (Sprague-Dawley)

[3] = in vivo; cited from earlier work
[4] = in vivo; cited from earlier work; remark: listed apart in the source
[5] = cited from earlier work
293T cells = test: Cell viability in 293T cells (CellTiter-Glo 2.0); settings: 12-hour exposure
CaMKII [6] = settings: HEK293T cells and in vitro by independent commercial laboratory
CaMKII^T287D = target: T2, CaMKII^T287D (Homo sapiens, UniProt Q13557, T287D); test: CaMKII inhibition in 293T cells expressing CaMKAR and CaMKII^T287D (high content imaging); assay type: cell-based; settings: HEK293T cells, IC50 curves
T2 construct: expressed in transfected cells; host or cells: HEK293T

OGT-transgenic mice = test: Sequential atrial fibrillation inducibility in OGT-transgenic mice; assay type: in vivo, mouse; settings: 75 mg/kg prior to second pacing
Source text: (§1) (FIG. 7A) Representative type 1 diabetic mouse tracings immediately after atrial burst pacing. […] (FIG. 7B) Atrial fibrillation (AF) inducibility percentage from mice in FIG. 7A. Number of mice analyzed per group shown in each column: 9/16 vehicle treated mice had AF vs. 2/15 Rux-treated mice. (FIG. 7C) Sequential atrial fibrillation (AF) inducibility in OGT-transgenic mice. […] Number of mice analyzed per group shown in each column (Vehicle=5/5 had AF, Rux=1/5 had AF). […] Statistical comparisons were performed using 2-tailed Fischer's exact test (FIGS. 7B, 7C); two-way ANOVA with Sidak's multiple comparison's test (FIG. 7D); paired Student's T-test (FIG. 7E); *p<0.05, ****p<0.0001.
75 mg/kg dosing was chosen due to previous studies determining this dose to be equivalent to the 20-25 mg dose in humans based on plasma concentration (47-49). In vivo electrophysiology (EP) studies were performed as previously reported (57) in mice anesthetized with isoflurane (2% for induction and 1.5% for maintenance of anesthesia; Isotec 100 Series Isoflurane Vaporizer; Harvard Apparatus). AF was defined as the occurrence of rapid and fragmented atrial electrograms with irregular AV-nodal conduction and ventricular rhythm for at least 1 second. If 1 or more atrial bursts (out of 5) were an AF episode, the mouse was considered to have inducible AF. […]

C57BL/6J mice [7] = test: Novel object recognition test (NORT); assay type: in vivo, mouse; settings: 75 or 41 mg/kg; single dose 1 hour prior or twice daily for 7 days
[8] = rats; cited from earlier work
NRVMs = test: NRVM cell viability after 48 hour compound incubation; assay type: cell-based, rat; settings: 48-hour exposure
Source text: FIGS. 3A-3H show which drugs in clinical use inhibit CaMKII in cardiac cells. (FIG. 3A) Fluorescence imaging timelapse of CaMKAR expressing neonatal rat ventricular cardiomyocytes (NRVMs) and (FIG. 3B) summary data during 3 Hz field pacing (n=1,065-1,160 cells). R/R0=R normalized to mean R prior to stimulation. Scale bar=50 μm. […] CaMKII inhibition % defined by min-max normalization between untreated and maximally stimulated CaMKAR signal. […] (FIG. 3E) Summary data from D at 60 seconds post stimulation. […] (FIG. 3H) Cell viability after 48 hour compound incubation. All measurements are taken from >3 biological replicates. ns=p>0.05, ****p<0.0001; significance determined via one-way ANOVA and Dunnett's multiple comparisons test (FIGS. 3C,3 E); two-way ANOVA and Tukey's multiple comparisons test (FIG. 3F).
Rat hippocampal neurons were cultured as previously described (38).

CREM-IbAC-X mice = test: Spontaneous atrial fibrillation in CREM-IbAC-X mice; assay type: in vivo, mouse; settings: 75 mg/kg i.p., 10 minutes after treatment
Source text: as §1
Spontaneous AF. 8-months-old CREM-IbAC-X mice were monitored via surface ECG for 15 minutes to establish the baseline for time spent in atrial fibrillation (AF). AF was defined as loss of p-waves and irregularly irregular R-R intervals for >10 seconds. Each mouse was monitored at least twice with more than 24 hours interval between two recordings. After establishing the baseline, the mice were injected with placebo (10% DMSO, 2.5% Tween-20 in saline; i.p. injections) and the 15-minute ECGs were recorded between 10-25 minutes post injection.

C57BL/6J mice [9] = test: Barnes maze; assay type: in vivo, mouse; settings: 150 mg/kg/day
Procedure: (FIG. 20B) Latency to escape the Barnes maze during the probe trial (day 6). There was no significant deficit in ruxolitinib (Rux) treated mice over vehicle (Veh). Datapoints represent individual mice. (FIGS. 20C-20E) Latency to escape maze, primary errors, and total errors of mice subjected to Barnes maze during the 4 training trials. Statistical testing shown below each graph with proportion and significance of variance by each parameter. Data shown as mean±SEM. Significance was determined via Student's T-test (FIG. 20B), or two-way ANOVA (FIGS. 20C-20E).
For the Barnes maze: A brightly lit (1100 lux) Barnes maze with 20 evenly spaced holes and an escape box placed under one of the holes was used (Maze Engineers). During training, each mouse was placed in the center of the maze and allowed to explore the maze for 3 minutes per trial. During the trial, the number of head dips and the latency to find and then enter the escape box were recorded. Mice were given two trials per day for four days. 24 hours following training, mice were given a probe trial, with the number of head dips and latency to find and then enter the escape box recorded.

C57BL/6J mice [10] = test: Y maze spatial recognition memory test; assay type: in vivo, mouse
type 1 diabetic mice = test: Atrial fibrillation induction by atrial burst pacing in type 1 diabetic mice; assay type: in vivo, mouse; settings: 75 mg/kg i.p. single dose 10 minutes prior
Source text: as §1
Diabetic Mouse Model. Type-1 diabetes (T1D) was induced as previously described (57) in adult male C57BL/6J mice (The Jackson Laboratory, ME, USA) by a single intraperitoneal injection of streptozotocin (STZ)(185 mg/kg, Sigma-Aldrich) dissolved in a citrate buffer (citric acid and sodium citrate, pH 4.0) after a six hour fast. Mice were maintained on normal chow diet (NCD) (7913 irradiated NIH-31 modified 6% mouse/rat diet—15 kg, Envigo, Indianapolis, TN). Mice were considered diabetic if blood glucose level was ≥300 mg/dl via tail vein blood checked with a glucometer—OneTouch Ultra 2 (LifeScan, Zug, Switzerland). […]

[11] = system: WT and RyR2^R176Q/WT mice; test: ECG heart rate and electrophysiologic parameters in WT and RyR2^R176Q/WT mice
CaMKII [12] = target: CaMKII (Homo sapiens, UniProt Q13557); assay type: biochemical; settings: 5 μM drug, 100 μM ATP
[13] = target: T3, constitutively active CaMKIIδT287D (Homo sapiens, UniProt Q13557, T287D); test: CaMKAR-based high throughput primary screen in K562^CaMKII-CaMKAR cells; assay type: cell-based; settings: 5 μM per compound, 12 hours
T3 construct: P2A-mCherry (C); expressed in transfected cells; host or cells: K562 (lentiviral, doxycycline-induced)

[14] = target: CaMKAR (CaMKII Activity Reporter) (human); test: cell-based or functional assay
[15] = system: Purified recombinant CaMKAR
[16] = long-term ruxolitinib, median exposures 11.1 and 34.4 months

O=c1c(O)c(-c2ccc(O)c(O)c2)oc2ccccc12 [DiOHF, 3′,4′-dihydroxyflavonol]
IC50 (CaMKII [1]; read-out: published IC50): 250 nM

O=C(Nc1nc2cccc(-c3ccc(CN4CCS(=O)(=O)CC4)cc3)n2n1)C1CC1 [Filgotinib, filgotinib]
inhibition of pacing-induced CaMKII activity (CaMKII [2]; 0.5 μM and 2 μM pre-treatment): failed to inhibit

CN([C@@H](Cc1ccc(OS(=O)(=O)c2cccc3cnccc23)cc1)C(=O)N1CCN(c2ccccc2)CC1)S(=O)(=O)c1cccc2cnccc12 [KN-62, 1-[N,O-bis(5-isoquinolinesulfonyl)-N-methyl-L-tyrosyl]-4-phenylpiperazine]
inhibition of autonomously hyperactive CaMKII (CaMKII [1]): fail to inhibit

COc1ccc(S(=O)(=O)N(CCO)c2ccccc2CN(C)CC=Cc2ccc(Cl)cc2)cc1 [KN-93]
inhibition of autonomously hyperactive CaMKII (CaMKII [1]): fail to inhibit

CCN1CCN(Cc2ccc(Nc3ncc(F)c(-c4cc(F)c5nc(C)n(C(C)C)c5c4)n3)nc2)CC1 [abemaciclib]
maximum human plasma concentration [3]: 243 nM | CNS penetrance [4]: 11-16.6% | Maximum dose used in humans ([5]; human, in vivo): 200 mg BID

CCS(=O)(=O)N1CC(CC#N)(n2cc(-c3ncnc4[nH]ccc34)cn2)C1 [baricitinib]
maximum human plasma concentration [3]: 58 nM | toxicity compared with AS100397 (293T cells): less toxic | CNS penetrance [4]: 20% (103) | Maximum dose used in humans ([5]; FDA-approved): 4 mg QD (97) | Maximum dose used in humans ([5]; Healthy volunteers): 40 mg (98)

CC1(COc2ccc3c(c2)ncn3-c2ccc3cccc(N4CCC(N)CC4)c3n2)COC1 [crenolanib]
maximum human plasma concentration [3]: 478 nM | inhibition of pacing-induced CaMKII activity at maximal human plasma concentration (CaMKII [2]; 3 Hz pacing, ruxolitinib 1.51 μM, crenolanib 478 nM, abemaciclib 243 nM, baricitinib 58 nM, silmitasertib 3.42 μM): sustained inhibition | toxicity compared with AS100397 (293T cells): all drugs except crenolanib were less toxic | confirmed CaMKII inhibitor after re-test (CaMKII [6]): potent CaMKII inhibitors | potency compared with AS100397 (CaMKII^T287D): more potent than AS100397 | Maximum dose used in humans ([5]; human, in vivo): 100 mg TID

N#CC[C@H](C1CCCC1)n1cc(-c2ncnc3[nH]ccc23)cn1 [ruxolitinib]
maximum human plasma concentration [3]: 1510 nM | mice with AF / mice analyzed (OGT-transgenic mice): 1/5 | novel object recognition, percent time spent with the novel object (C57BL/6J mice [7]): Neither single dose (1 hour prior) nor multiple doses (twice daily for 7 days) of ruxolitinib (75 or 41 mg/kg) caused significant differences in novel object recognition | plasma concentration over brain concentration [8]: 29 fold | well tolerated concentration (NRVMs): up to 100 μM | percent time in AF (CREM-IbAC-X mice): 33.63% | latency, primary errors, and total errors during training trials (C57BL/6J mice [9]): no significant effect | maze solving latency at study endpoint (probe trial) (C57BL/6J mice [9]; day 6): no difference | toxicity compared with AS100397 (293T cells): less toxic | decreased preference for the novel arm (C57BL/6J mice [10]; higher dose single dosing and both multiple dosing cohorts): not seen | preference for the novel arm (C57BL/6J mice [10]; single dosing, lower dose (41 mg/kg)): decreased preference for the novel arm | mice with AF / mice analyzed (type 1 diabetic mice): 2/15 | CNS penetrance [4]: 3.5% (64) | PR ([11]; RyR^R176Q/WT mice, Baseline): 39.5 ± 1 ms | QTc ([11]; RyR^R176Q/WT mice, Baseline): 36.5 ± 5 ms | PR ([11]; RyR^R176Q/WT mice, EPI): 42.2 ± 4 ms | QTc ([11]; RyR^R176Q/WT mice, EPI): 49.5 ± 4 ms | PR ([11]; RyR^R176Q/WT mice, ISO): 43.1 ± 3 ms | QTc ([11]; RyR^R176Q/WT mice, ISO): 51.6 ± 5 ms | PR ([11]; WT mice, Baseline): 43.4 ± 4 ms | QTc ([11]; WT mice, Baseline): 48.6 ± 6 ms | PR ([11]; WT mice, EPI): 45.9 ± 2.7 ms | QTc ([11]; WT mice, EPI): 55.7 ± 8 ms | PR ([11]; WT mice, ISO): 43.8 ± 4 ms | QTc ([11]; WT mice, ISO): 49.2 ± 4 ms | Maximum dose used in humans ([5]; FDA-approved): 25 mg BID (96) | Maximum dose used in humans ([5]; Healthy volunteers): 200 mg QD (76) | well-tolerated dose ([5]; healthy volunteers, short-term dosing): up to 200 mg | patients discontinuing treatment due to anemia [5, 16]: < 2.6% | patients discontinuing treatment due to thrombocytopenia [5, 16]: < 3.6% | cognitive deficits in patients ([5]; prescribed for over a decade): without reported overt cognitive deficits

O=C(O)c1ccc2c(c1)nc(Nc1cccc(Cl)c1)c1ccncc12 [silmitasertib]
maximum human plasma concentration [3]: 3420 nM | Maximum dose used in humans ([5]; human, in vivo): 1000 mg BID

CN[C@@H]1C[C@H]2O[C@@](C)([C@@H]1OC)n1c3ccccc3c3c4c(c5c6ccccc6n2c5c31)C(=O)NC4 [staurosporine]
inhibition in secondary screen (CaMKAR in vitro assay) (CaMKII [12]): returned | CaMKAR signal / hit in primary screen [13]: returned

Constitutively active CaMKIIδC (T287D mutation) (from UniProt Q13557 1-499)
Maximal amplitude change of CaMKAR signal (R/R0), HEK293T cells, ionomycin [14]: 227%

Purified CaMKIIδc
dynamic range of CaMKAR ratio in vitro, plate reader, Ca2+/CaM and ATP [15]: CaMKAR displays a larger dynamic range in vitro (264±2.1%) | spectral changes of purified CaMKAR in vitro [15]: Recombinant CaMKAR is fully functional and exhibits appropriate spectral changes upon incubation with purified CaMKII
